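Grown in 96-well plates, cells were treated for 48 hours with each compound at five concentrations. Insufficient inhibition: endpoint recorded as highest concentration tested. TGI: total growth inhibition.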
How the values were obtained:
Assay in all cases: DTP human tumour cell line panel, 48 h
A498 renal = system: A498 renal
KM20L2 colon = system: KM20L2 colon
RPMI-8226 leukemia = system: RPMI-8226 leukemia
SK-OV-3 ovarian = system: SK-OV-3 ovarian
SW-620 colon = system: SW-620 colon
SK-MEL-28 melanoma = system: SK-MEL-28 melanoma
SF-295 CNS = system: SF-295 CNS
KM12 colon = system: KM12 colon
COLO 205 colon = system: COLO 205 colon
SK-MEL-2 melanoma = system: SK-MEL-2 melanoma
MALME-3M melanoma = system: MALME-3M melanoma
LXFL 529 NSCLC = system: LXFL 529 NSCLC
HOP-62 NSCLC = system: HOP-62 NSCLC
RXF-631 renal = system: RXF-631 renal
HL-60(TB) leukemia = system: HL-60(TB) leukemia
OVCAR-8 ovarian = system: OVCAR-8 ovarian
DMS 114 small cell lung = system: DMS 114 small cell lung
SN12C renal = system: SN12C renal
CAKI-1 renal = system: CAKI-1 renal
NCI-H23 lung = system: NCI-H23 lung
TK-10 renal = system: TK-10 renal
MOLT-4 leukemia = system: MOLT-4 leukemia
K-562 leukemia = system: K-562 leukemia
UACC-62 melanoma = system: UACC-62 melanoma
DLD-1 colon = system: DLD-1 colon
DMS 273 small cell lung = system: DMS 273 small cell lung
UO-31 renal = system: UO-31 renal
SNB-75 CNS = system: SNB-75 CNS
OVCAR-5 ovarian = system: OVCAR-5 ovarian
SNB-19 CNS = system: SNB-19 CNS
M19-MEL melanoma = system: M19-MEL melanoma
NCI-H522 lung = system: NCI-H522 lung
HCC-2998 colon = system: HCC-2998 colon
CCRF-CEM leukemia = system: CCRF-CEM leukemia
NCI-H460 lung = system: NCI-H460 lung
OVCAR-4 ovarian = system: OVCAR-4 ovarian
U251 CNS = system: U251 CNS
LOX IMVI melanoma = system: LOX IMVI melanoma
M14 melanoma = system: M14 melanoma
HCT-15 colon = system: HCT-15 colon
SR leukemia = system: SR leukemia
SK-MEL-5 melanoma = system: SK-MEL-5 melanoma
NCI-H226 lung = system: NCI-H226 lung
IGROV1 ovarian = system: IGROV1 ovarian
OVCAR-3 ovarian = system: OVCAR-3 ovarian
UACC-257 melanoma = system: UACC-257 melanoma
SF-539 CNS = system: SF-539 CNS
ACHN renal = system: ACHN renal
A549 NSCLC = system: A549 NSCLC
786-0 renal = system: 786-0 renal
XF 498 CNS = system: XF 498 CNS
HT29 colon = system: HT29 colon
HOP-92 NSCLC = system: HOP-92 NSCLC
SF-268 CNS = system: SF-268 CNS
SNB-78 CNS = system: SNB-78 CNS
EKVX NSCLC = system: EKVX NSCLC
RXF 393 renal = system: RXF 393 renal
HCT-116 colon = system: HCT-116 colon

Measured: TGI

CCN1C(=O)N2C(OC)c3ccccc3C(Br)C2(OC)C1=O (centres undefined)
not listed: UACC-257 melanoma | SF-539 CNS | ACHN renal | A549 NSCLC | 786-0 renal | XF 498 CNS | HT29 colon | HOP-92 NSCLC | SF-268 CNS | SNB-78 CNS | EKVX NSCLC | RXF 393 renal | HCT-116 colon
> 100 µM: all other assays above

Nc1ncnc2sc(Nc3ccccc3)nc12
64.7 µM: HL-60(TB) leukemia
not listed: A498 renal | DMS 114 small cell lung | CCRF-CEM leukemia | SK-MEL-5 melanoma | EKVX NSCLC | RXF 393 renal | HCT-116 colon
> 100 µM: all other assays above

CCCC(=O)OC1C(C2COC(C)(C)O2)OC2OC(C)(C)OC21 (centres undefined)
not listed: RPMI-8226 leukemia | SW-620 colon | COLO 205 colon | SK-MEL-2 melanoma | MALME-3M melanoma | LXFL 529 NSCLC | RXF-631 renal | SN12C renal | CAKI-1 renal | DLD-1 colon | SNB-75 CNS | HCC-2998 colon | OVCAR-4 ovarian | LOX IMVI melanoma | HCT-15 colon | SK-MEL-5 melanoma | NCI-H226 lung | OVCAR-3 ovarian | SF-539 CNS | A549 NSCLC | 786-0 renal | XF 498 CNS | SF-268 CNS
> 100 µM: all other assays above

Cn1c(=O)c(C(=O)NC23CC4CC(CC(C4)C2)C3)c(O)c2ccccc21
48.4 µM: NCI-H226 lung
63 µM: OVCAR-3 ovarian
64.1 µM: OVCAR-8 ovarian
43.6 µM: HOP-62 NSCLC
57.9 µM: HCT-116 colon
51.1 µM: NCI-H460 lung
42.9 µM: ACHN renal
83.8 µM: SNB-75 CNS
44.7 µM: MALME-3M melanoma
54.8 µM: SN12C renal
64.3 µM: DMS 273 small cell lung
95.6 µM: IGROV1 ovarian
43.9 µM: SNB-19 CNS
30.3 µM: 786-0 renal
48 µM: TK-10 renal
57.4 µM: SF-295 CNS
59.7 µM: U251 CNS
48.1 µM: HT29 colon
35.9 µM: RXF 393 renal
73.4 µM: SK-OV-3 ovarian
not listed: A498 renal | SK-MEL-2 melanoma | RXF-631 renal | CAKI-1 renal | OVCAR-5 ovarian | HCC-2998 colon | OVCAR-4 ovarian | SK-MEL-5 melanoma | XF 498 CNS | HOP-92 NSCLC
> 100 µM: all other assays above

— PubChem BioAssay (NCI)
